US12304890B2, “R-type pyridyloxycarboxylic acid, salt and ester derivative thereof, and preparation method therefor, and herbicidal composition and application thereof” (Qingdao Kingagroot Chemical Compound Co., Ltd., priority 2018, dated 2025)

Assays:
Format in all cases: in vivo
[1] = tested on: Echinochloa crusgalli; test: Post-emergence test experiment, Echinochloa crusgalli; conditions: 1000 g a.i./ha, 3 weeks in greenhouse, fresh weight inhibition
Procedure: (§1) The above described growth inhibition rate is fresh weight inhibition rate.
(§2) Post-emergence test experiment: Monocotyledonous and dicotyledonous weed seeds and main crop seeds (i. e. wheat, corn, rice, soybean, cotton, oilseed, millet and sorghum.) were put into a plastic pot loaded with soil. Then covered with 0.5-2 cm soil, the seeds were allowed to grow in good greenhouse environment. The test plants were treated at 2-3 leaf stage 2 weeks after sowing. The test compounds of the invention were dissolved with acetone respectively, then added with tween-80, and using 1.5 liters per hectare of an emulsible concentrate of methyl oleate as a synergist, and diluted by certain amount of water to certain concentration. The solution was sprayed to the plants with a sprayer. Then the plants were cultured for 3 weeks in the greenhouse, and the experiment result of weed controlling effect was listed in tables 4-5.

[2] = tested on: Digitaria sanguinalis; test: Post-emergence test experiment, Digitaria sanguinalis; conditions: 1000 g a.i./ha, 3 weeks in greenhouse, fresh weight inhibition
Procedure: as §1, §2

[3] = tested on: Monocotyledonous and dicotyledonous weed seeds and main crop seeds; test: Post-emergence test experiment, other weeds and crops (Table 4, 1000 g a.i./ha); conditions: 3 weeks in greenhouse, fresh weight inhibition
In short: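 Growth inhibition is scored on fresh weight. Spray solutions were made in acetone with tween-80, diluted in water, plus 1.5 L/ha methyl oleate emulsible concentrate. Plants from greenhouse-grown weed and crop seeds were treated post-emergence at 2-3 leaves, 2 weeks after sowing.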

Row | Structure (SMILES) | Activity level (growth inhibition rate), Echinochloa crusgalli [1] | Activity level (growth inhibition rate), Digitaria sanguinalis [2] | Activity level (growth inhibition rate), Abutilon theophrasti Medic. [3] | Activity level (growth inhibition rate), Galium aparine [3] | Activity level (growth inhibition rate), Monochoria Vaginalis [3]
1 | CCC(CC)OC(=O)[C@@H](C)Oc1nc(F)c(Cl)c(N)c1Cl [Compound 2-97] | 5 (Level 5: the growth inhibition rate is greater than 85%) | 5 (Level 5: the growth inhibition rate is greater than 85%) | 5 (Level 5: the growth inhibition rate is greater than 85%) | 5 (Level 5: the growth inhibition rate is greater than 85%) | 5 (Level 5: the growth inhibition rate is greater than 85%)
2 | CCC(CC)SC(=O)[C@@H](C)Oc1nc(F)c(Cl)c(N)c1Cl [Compound 2-98] | 5 (Level 5: the growth inhibition rate is greater than 85%) | 5 (Level 5: the growth inhibition rate is greater than 85%) | 5 (Level 5: the growth inhibition rate is greater than 85%) | 5 (Level 5: the growth inhibition rate is greater than 85%) | 5 (Level 5: the growth inhibition rate is greater than 85%)
3 | CCC(C)(C)OC(=O)C(C)Oc1nc(F)c(Cl)c(N)c1Cl (centres unmarked) [Compound 2-99] | 5 (Level 5: the growth inhibition rate is greater than 85%) | 5 (Level 5: the growth inhibition rate is greater than 85%) | 5 (Level 5: the growth inhibition rate is greater than 85%) | 5 (Level 5: the growth inhibition rate is greater than 85%) | 5 (Level 5: the growth inhibition rate is greater than 85%)
4 | CCC(C)(C)SC(=O)C(C)Oc1nc(F)c(Cl)c(N)c1Cl (centres unmarked) [Compound 2-100] | 5 (Level 5: the growth inhibition rate is greater than 85%) | 5 (Level 5: the growth inhibition rate is greater than 85%) | 5 (Level 5: the growth inhibition rate is greater than 85%) | 5 (Level 5: the growth inhibition rate is greater than 85%) | 5 (Level 5: the growth inhibition rate is greater than 85%)
5 | CCCCCCOC(=O)[C@@H](C)Oc1nc(F)c(Cl)c(N)c1Cl [Compound 2-101] | 5 (Level 5: the growth inhibition rate is greater than 85%) | 5 (Level 5: the growth inhibition rate is greater than 85%) | 5 (Level 5: the growth inhibition rate is greater than 85%) | 5 (Level 5: the growth inhibition rate is greater than 85%) | 5 (Level 5: the growth inhibition rate is greater than 85%)
6 | CCCCCCSC(=O)[C@@H](C)Oc1nc(F)c(Cl)c(N)c1Cl [Compound 2-102] | 5 (Level 5: the growth inhibition rate is greater than 85%) | 5 (Level 5: the growth inhibition rate is greater than 85%) | 5 (Level 5: the growth inhibition rate is greater than 85%) | 5 (Level 5: the growth inhibition rate is greater than 85%) | 5 (Level 5: the growth inhibition rate is greater than 85%)
7 | CCCC(C)CSC(=O)[C@@H](C)Oc1nc(F)c(Cl)c(N)c1Cl (some centres unmarked) [Compound 2-104] | 5 (Level 5: the growth inhibition rate is greater than 85%) | 5 (Level 5: the growth inhibition rate is greater than 85%) | 5 (Level 5: the growth inhibition rate is greater than 85%) | 5 (Level 5: the growth inhibition rate is greater than 85%) | 5 (Level 5: the growth inhibition rate is greater than 85%)
8 | CCC(C)CCOC(=O)[C@@H](C)Oc1nc(F)c(Cl)c(N)c1Cl (some centres unmarked) [Compound 2-105] | 5 (Level 5: the growth inhibition rate is greater than 85%) | 5 (Level 5: the growth inhibition rate is greater than 85%) | 5 (Level 5: the growth inhibition rate is greater than 85%) | 5 (Level 5: the growth inhibition rate is greater than 85%) | 5 (Level 5: the growth inhibition rate is greater than 85%)
9 | CCC(C)CCSC(=O)[C@@H](C)Oc1nc(F)c(Cl)c(N)c1Cl (some centres unmarked) [Compound 2-106] | 5 (Level 5: the growth inhibition rate is greater than 85%) | 5 (Level 5: the growth inhibition rate is greater than 85%) | 5 (Level 5: the growth inhibition rate is greater than 85%) | 5 (Level 5: the growth inhibition rate is greater than 85%) | 5 (Level 5: the growth inhibition rate is greater than 85%)
10 | CC(C)CCCOC(=O)[C@@H](C)Oc1nc(F)c(Cl)c(N)c1Cl [Compound 2-107] | 5 (Level 5: the growth inhibition rate is greater than 85%) | 5 (Level 5: the growth inhibition rate is greater than 85%) | 5 (Level 5: the growth inhibition rate is greater than 85%) | 5 (Level 5: the growth inhibition rate is greater than 85%) | 5 (Level 5: the growth inhibition rate is greater than 85%)
11 | CC(C)CCCSC(=O)[C@@H](C)Oc1nc(F)c(Cl)c(N)c1Cl [Compound 2-108] | 5 (Level 5: the growth inhibition rate is greater than 85%) | 5 (Level 5: the growth inhibition rate is greater than 85%) | 5 (Level 5: the growth inhibition rate is greater than 85%) | 5 (Level 5: the growth inhibition rate is greater than 85%) | 5 (Level 5: the growth inhibition rate is greater than 85%)
12 | CCCCC(C)SC(=O)[C@@H](C)Oc1nc(F)c(Cl)c(N)c1Cl (some centres unmarked) [Compound 2-114] | 5 (Level 5: the growth inhibition rate is greater than 85%) | 5 (Level 5: the growth inhibition rate is greater than 85%) | 5 (Level 5: the growth inhibition rate is greater than 85%) | 5 (Level 5: the growth inhibition rate is greater than 85%) | 5 (Level 5: the growth inhibition rate is greater than 85%)
13 | CCCCCCCSC(=O)[C@@H](C)Oc1nc(F)c(Cl)c(N)c1Cl [Compound 2-122] | 5 (Level 5: the growth inhibition rate is greater than 85%) | 5 (Level 5: the growth inhibition rate is greater than 85%) | 5 (Level 5: the growth inhibition rate is greater than 85%) | 5 (Level 5: the growth inhibition rate is greater than 85%) | 5 (Level 5: the growth inhibition rate is greater than 85%)
14 | CCCCCCCCOC(=O)[C@@H](C)Oc1nc(F)c(Cl)c(N)c1Cl [Compound 2-155] | 5 (Level 5: the growth inhibition rate is greater than 85%) | 5 (Level 5: the growth inhibition rate is greater than 85%) | 5 (Level 5: the growth inhibition rate is greater than 85%) | 5 (Level 5: the growth inhibition rate is greater than 85%) | 5 (Level 5: the growth inhibition rate is greater than 85%)
15 | CCCCCCCCSC(=O)[C@@H](C)Oc1nc(F)c(Cl)c(N)c1Cl [Compound 2-156] | 5 (Level 5: the growth inhibition rate is greater than 85%) | 5 (Level 5: the growth inhibition rate is greater than 85%) | 5 (Level 5: the growth inhibition rate is greater than 85%) | 5 (Level 5: the growth inhibition rate is greater than 85%) | 5 (Level 5: the growth inhibition rate is greater than 85%)
16 | CCCCC(CC)COC(=O)[C@@H](C)Oc1nc(F)c(Cl)c(N)c1Cl (some centres unmarked) [Compound 2-157] | 5 (Level 5: the growth inhibition rate is greater than 85%) | 5 (Level 5: the growth inhibition rate is greater than 85%) | 5 (Level 5: the growth inhibition rate is greater than 85%) | 5 (Level 5: the growth inhibition rate is greater than 85%) | 5 (Level 5: the growth inhibition rate is greater than 85%)
